Data from ChEMBL document CHEMBL3132802, “Azole derivatives as novel non-iron-chelating inhibitors of prolyl hydroxylase 3 for HIF-1 activation” (Medchemcomm, 2013).
pIC50: −log10 of the molar value. Active and inactive are the calls of the source. The rule behind the calls is not given here.

Assays:
NCI-H446 [1] = assay: Effect on HIF1alpha mRNA expression in human NCI-H446 cells after 12 hrs by RT-PCR analysis; format: functional, cell-based
[2] = Cytotoxicity against human NCI-H446 cells assessed as cell survival up to 200 uM after 24 hrs by MTT assay; format: cell-based; settings: read-out: Survival
NCI-H446 [3] = assay: Cytotoxicity against human NCI-H446 cells assessed as proliferation rate up to 200 uM after 24 hrs by MTT assay; format: cell-based; settings: nci-h446, 24 h
Prolyl hydroxylase EGLN3 = Prolyl hydroxylase EGLN3 (Homo sapiens, UniProt Q9H6Z9); assay: Inhibition of recombinant human PHD3 expressed in Escherichia coli using HIF19 peptide as substrate by fluorescence emission spectroscopy
Prolyl hydroxylase EGLN3, sequence (Q9H6Z9 whole entry): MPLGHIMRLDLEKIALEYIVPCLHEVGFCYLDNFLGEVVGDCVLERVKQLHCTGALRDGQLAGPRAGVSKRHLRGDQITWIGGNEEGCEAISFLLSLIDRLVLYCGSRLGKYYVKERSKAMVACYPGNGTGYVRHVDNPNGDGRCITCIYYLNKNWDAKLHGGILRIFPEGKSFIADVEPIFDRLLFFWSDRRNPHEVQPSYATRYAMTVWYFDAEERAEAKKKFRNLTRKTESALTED

SMILES | Activity (NCI-H446 [1]) | viability at 24 h [2] | Activity (NCI-H446 [3]) | pIC50 (Prolyl hydroxylase EGLN3)
c1ccc2[nH]c(CCn3nnc4ccccc43)nc2c1 | inactive | > 90% |  | 
c1ccc2[nH]c(CCn3cncn3)nc2c1 | inactive |  | > 80% | 
c1ccc2[nH]cnc2c1 [BENZIMIDAZOLE] |  |  |  | < 4.00
O=C(O)CCn1cnc2ccccc21 | inactive |  | > 80% | 
O=C(O)CCn1cncn1 | inactive |  | > 80% | 
c1ccc2[nH]nnc2c1 [BENZOTRIAZOLE] |  |  |  | < 4.00
O=C(O)CCn1ccnc1 | inactive | > 90% |  | 
O=C(O)CCn1nnc2ccccc21 | inactive | > 90% |  | 
